Activity calls are given as the source filed them.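 Rule for the calls: active = mean half-maximal activating concentration from the dose-response fit at or below a set limit; inactive = the rest.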
target: CHO-XBP1 luciferase reporter, IRE1-XBP1 UPR activation; experiment: activators of IRE1-XBP1 UPR arm, dose response, counter-screen for apoptotic UPR arm activators, CHO-XBP1 cells, luminescence (AID 489040);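 note: reporter read after six hours of compound exposure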

Compound	EC50
CC(C)(C)N1CSC(=S)N(Cc2ccccc2)C1	> 80 µM (inactive)
O=C(Nc1nc2c(F)cc(F)cc2s1)c1ccccn1	> 80 µM (inactive)
Cc1ccc(C)c(N=Cc2c(O)c3ccccc3oc2=O)c1	inactive
CN=c1scc(-c2ccco2)n1/N=C/c1ccc(O)c(O)c1	> 80 µM (inactive)
O=C(CCl)N1N=C(c2cccs2)CC1c1ccco1 (stereo not drawn)	> 80 µM (inactive)
COc1ccc(C(C[N+](=O)[O-])n2nc(C)cc2C)cc1 (stereo not drawn)	> 80 µM (inactive)
Cc1nc(SCC(=O)Nc2ccc(F)cc2)c(C#N)c(C)c1CC(=O)c1ccc(Br)cc1	> 80 µM (inactive)
COc1ccc(NC(=O)C(=O)N/N=C\c2ccc(CNC(=O)C(=O)Nc3ccc(C)c(C)c3)o2)c(OC)c1	> 80 µM (inactive)
COCc1cc(C)nc(OCC(=O)N/N=C/c2ccc(-c3cc([N+](=O)[O-])ccc3Cl)o2)c1C#N	13.2 µM
CCN(CC)S(=O)(=O)c1ccc(N/N=C(\C)c2ccc3c(c2)OCO3)c([N+](=O)[O-])c1	17.5 µM
COC(=O)C1=C(C)N(c2ccc(C)c(C)c2)/C(=C/c2cccs2)C1=O	> 80 µM (inactive)
Cc1ccc(C)c(NC(=S)c2ccccn2)c1	> 80 µM (inactive)
O=Cc1ccc(O)c2ncccc12	> 80 µM (inactive)
CCOC(=O)c1c2ccc(OCC(=O)N/N=C/c3ccc(C)cc3)cc2n2ccccc12	> 80 µM (inactive)
CC(=O)Nc1ccc(N=Cc2c(O)c(C(=O)Nc3ccccc3)cc3ccccc23)cc1	inactive
N#Cc1ccc(N/N=C/c2cn(-c3ccccc3)nc2-c2ccccc2)c([N+](=O)[O-])c1	> 80 µM (inactive)
COc1ccc(/C=C/C(=O)c2ccc(C(=O)/C=C/c3ccc(OC)c(OC)c3)cc2)cc1OC	> 80 µM (inactive)
C[C@@H]1C[C@@H]2O[C@H]2/C=C\C=C\C(=O)Cc2c(Cl)c(O)cc(O)c2C(=O)O1	> 80 µM (inactive)
O=C(CSc1cccc2cccnc12)N/N=C/c1cccnc1	> 80 µM (inactive)

Compound	EC50
Oc1ccc(/C=N/Nc2ccc(C(F)(F)F)cn2)cc1O	> 80 µM (inactive)
Cn1cc(/C=C2\SC(=O)NC2=S)c2ccccc21	inactive
COc1ccccc1N1CCN(Cc2ccc(O)c3ncccc23)CC1	> 80 µM (inactive)
O=C1NC(=O)N(c2ccccc2)C(=O)/C1=C/C=C/c1ccco1	> 80 µM (inactive)
O=C1Nc2ccc(Br)cc2/C1=N/N=C/C1=C(N2CCOCC2)C(=C\c2ccccc2)/CC1	> 80 µM (inactive)
O=C(N/N=C\c1cc2c(cc1Cl)OCO2)c1ccc(Br)s1	> 80 µM (inactive)
COc1ccc(CNC[C@@H](CCCCN(C)Cc2ccc(OC)cc2)N2C[C@H](c3ccccc3)N(CCc3ccc(Cl)c(Cl)c3)C(=O)C2=O)cc1	> 80 µM (inactive)
C/C(=N\Nc1ncnc2sc(C)c(C)c12)c1ccccn1	inactive
C/C(=N\NC(=O)c1cccc2ccccc12)c1ccccn1	> 80 µM (inactive)
Cc1ccc(-c2nc(SCC(=O)Nc3cc(C)on3)c3c(=O)n(C)c(=O)n(C)c3n2)cc1	inactive
COc1ccc(-c2cc(C(F)(F)F)nc(S(C)(=O)=O)n2)cc1OC	> 80 µM (inactive)
O=C(CN(c1cccc(C(F)(F)F)c1)S(=O)(=O)c1ccc(Cl)c([N+](=O)[O-])c1)NCc1ccc(F)cc1	> 80 µM (inactive)
O=C(Nc1nc2ccc(F)cc2s1)c1ccccn1	> 80 µM (inactive)
O=C(N/N=C/c1cccc([N+](=O)[O-])c1)c1cc2c(ccc3ccccc32)o1	> 80 µM (inactive)
CCSC1(SCC)N=C(N)C2(C#N)C(c3ccc(OC)c(OC)c3OC)C12C#N (stereo not drawn)	> 80 µM (inactive)
O=C(/C=C/Sc1ccccc1)c1ccccc1	> 80 µM (inactive)
CC1=CC(C)(C)Nc2ccc(OC(=O)CN3C(=O)C4CCCCC4C3=O)cc21 (stereo not drawn)	> 80 µM (inactive)
Cc1cccc(N=Nc2ccc(O)c3ncccc23)c1	> 80 µM (inactive)
O=C(Nc1nc(-c2ccccn2)cs1)c1ccc(Br)s1	inactive

Reference: PubChem BioAssay AID489040 (Sanford-Burnham Center for Chemical Genomics, 2010)
